EC50 data for 18 compounds are collected here from ChEMBL document CHEMBL1145783, “Development of an orexin-2 receptor selective agonist, [Ala(11), D-Leu(15)]orexin-B” (Bioorg Med Chem Lett, 2003).

The target of this assay is T1, Orexin receptor type 2 (Homo sapiens, UniProt O43614).
T1 sequence (O43614 whole entry): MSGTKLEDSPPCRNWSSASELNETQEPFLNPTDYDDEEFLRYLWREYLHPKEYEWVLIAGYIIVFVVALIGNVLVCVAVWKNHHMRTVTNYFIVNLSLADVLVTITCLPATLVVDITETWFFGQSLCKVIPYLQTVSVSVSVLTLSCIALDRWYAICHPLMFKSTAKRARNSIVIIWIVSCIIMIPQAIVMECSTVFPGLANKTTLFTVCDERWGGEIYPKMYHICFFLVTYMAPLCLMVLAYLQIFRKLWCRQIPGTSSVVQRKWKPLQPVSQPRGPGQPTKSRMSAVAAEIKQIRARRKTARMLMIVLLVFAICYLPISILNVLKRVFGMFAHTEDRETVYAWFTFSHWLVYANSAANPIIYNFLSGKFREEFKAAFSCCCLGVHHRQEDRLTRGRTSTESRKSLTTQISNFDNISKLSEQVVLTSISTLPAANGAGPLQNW
Put plainly: Agonist activity against human orexin 2 receptor; EC50; nM. Format: functional.
The EC50 is the concentration that produces a half-maximal response. As for `CC[C@H](C)[C@H](NC(=O)[C@H](CC(C)C)NC(=O)[C@@H](NC(=O)[C@@H](N)CCSC)[C@@H](C)O)C(=O)NCC(=O)N[C@@H](C)C(=O)N[C@@H](C)C(=O)N[C@@H](Cc1c[nH]cn1)C(=O)N[C@@H](CC(N)=O)C(=O)NCC(=O)N[C@@H](CO)C(=O)N[C@@H](C)C(=O)N[C@@H](CCC(N)=O)C(=O)N[C@@H](CC(C)C)C(=O)N[C@@H](CC(C)C)C(=O)N[C@@H](CCCN=C(N)N)C(=O)N[C@@H](CCC(N)=O)C(=O)N[C@@H](CC(C)C)C(=O)N[C@@H](CCCN=C(N)N)C(=O)NCC(=O)N[C@@H](CCC(N)=O)C(=O)N[C@@H](CC(C)C)C(=O)NCC(=O)N1CCC[C@H]1C(=O)N1CCC[C@H]1C(=O)NCC(=O)N[C@H](CO)C(=O)N[C@@H](CCCN=C(N)N)C(N)=O`, the EC50 amounted to 0.15 nM. Compound `CC[C@H](C)[C@H](NC(=O)[C@H](CC(C)C)NC(=O)[C@@H](NC(=O)[C@@H](N)CCSC)[C@@H](C)O)C(=O)NCC(=O)N[C@@H](C)C(=O)N[C@@H](C)C(=O)N[C@@H](Cc1c[nH]cn1)C(=O)N[C@@H](CC(N)=O)C(=O)NCC(=O)N[C@@H](CO)C(=O)N[C@@H](C)C(=O)N[C@@H](CCC(N)=O)C(=O)N[C@@H](CC(C)C)C(=O)N[C@@H](CC(C)C)C(=O)N[C@@H](CCCN=C(N)N)C(=O)N[C@@H](CCC(N)=O)C(=O)N[C@@H](CC(C)C)C(=O)N[C@@H](CCCN=C(N)N)C(=O)NCC(=O)N[C@@H](CCC(N)=O)C(=O)N[C@@H](CC(C)C)C(=O)NCC(=O)N1CCC[C@H]1C(=O)N1CCC[C@H]1C(=O)NCC(=O)N[C@@H](CO)C(=O)N[C@H](CCCN=C(N)N)C(N)=O` yielded a half-maximal effective concentration (EC50) of 0.19 nM.

With `CC[C@H](C)[C@H](NC(=O)[C@H](CC(C)C)NC(=O)[C@@H](NC(=O)[C@@H](N)CCSC)[C@@H](C)O)C(=O)N[C@H](C)C(=O)N[C@@H](C)C(=O)N[C@@H](C)C(=O)N[C@@H](Cc1cnc[nH]1)C(=O)N[C@@H](CC(N)=O)C(=O)NCC(=O)N[C@@H](CO)C(=O)N[C@@H](C)C(=O)N[C@@H](CCC(N)=O)C(=O)N[C@@H](CC(C)C)C(=O)N[C@@H](CC(C)C)C(=O)N[C@@H](CCCN=C(N)N)C(=O)N[C@@H](CCC(N)=O)C(=O)N[C@@H](CC(C)C)C(=O)N[C@@H](CCCN=C(N)N)C(=O)NCC(=O)N[C@@H](CCC(N)=O)C(=O)N[C@@H](CC(C)C)C(=O)NCC(=O)N1CCC[C@H]1C(=O)N1CCC[C@H]1C(=O)NCC(=O)N[C@@H](CO)C(=O)N[C@@H](CCCN=C(N)N)C(N)=O`, the half-maximal effective concentration (EC50) is 67 nM. This EC50 lies about 350-fold higher than the previous one. As for `CC[C@H](C)[C@H](NC(=O)[C@H](CC(C)C)NC(=O)[C@@H](NC(=O)[C@@H](N)CCSC)[C@@H](C)O)C(=O)NCC(=O)N[C@@H](C)C(=O)N[C@@H](C)C(=O)N[C@@H](Cc1c[nH]cn1)C(=O)N[C@@H](CC(N)=O)C(=O)NCC(=O)N[C@@H](CO)C(=O)N[C@@H](C)C(=O)N[C@@H](CCC(N)=O)C(=O)N[C@H](CC(C)C)C(=O)N[C@@H](CC(C)C)C(=O)N[C@@H](CCCN=C(N)N)C(=O)N[C@@H](CCC(N)=O)C(=O)N[C@@H](CC(C)C)C(=O)N[C@@H](CCCN=C(N)N)C(=O)NCC(=O)N[C@@H](CCC(N)=O)C(=O)N[C@@H](CC(C)C)C(=O)NCC(=O)N1CCC[C@H]1C(=O)N1CCC[C@H]1C(=O)NCC(=O)N[C@@H](CO)C(=O)N[C@@H](CCCN=C(N)N)C(N)=O`, the concentration giving a half-maximal response (EC50) was 0.052 nM. With `CC[C@H](C)[C@H](NC(=O)[C@H](CC(C)C)NC(=O)[C@@H](NC(=O)[C@@H](N)CCSC)[C@@H](C)O)C(=O)N[C@@H](C)C(=O)N[C@@H](C)C(=O)N[C@@H](C)C(=O)N[C@@H](Cc1cnc[nH]1)C(=O)N[C@@H](CC(N)=O)C(=O)NCC(=O)N[C@@H](CO)C(=O)N[C@@H](C)C(=O)N[C@@H](CCC(N)=O)C(=O)N[C@@H](CC(C)C)C(=O)N[C@@H](CC(C)C)C(=O)N[C@@H](CCCN=C(N)N)C(=O)N[C@@H](CCC(N)=O)C(=O)N[C@@H](CC(C)C)C(=O)N[C@@H](CCCN=C(N)N)C(=O)NCC(=O)N[C@@H](CCC(N)=O)C(=O)N[C@@H](CC(C)C)C(=O)NCC(=O)N1CCC[C@H]1C(=O)N1CCC[C@H]1C(=O)NCC(=O)N[C@@H](CO)C(=O)N[C@@H](CCCN=C(N)N)C(N)=O`, the response was half-maximal at 290 nM (EC50). Against the preceding compound, the EC50 is about 5600-fold higher. H-MTLIGAAHNGSAQLLRQLRGQLGPPGSA-NH2 registered an EC50 of 0.2 nM.

Regarding H-MTLIGAAHNGSAQLLRQSRGQLGPPGSR-NH2, a half-maximal effect (EC50) was put at 1.2 nM. Consider H-MTAIGAAHNGSAQLLRQLRGQLGPPGSR-NH2, for which the midpoint of the response, the EC50, lay at 140 nM. The value for `CC[C@H](C)[C@H](NC(=O)[C@H](CC(C)C)NC(=O)[C@@H](NC(=O)[C@@H](N)CCSC)[C@@H](C)O)C(=O)NCC(=O)N[C@@H](C)C(=O)N[C@@H](C)C(=O)N[C@@H](Cc1cnc[nH]1)C(=O)N[C@H](CC(N)=O)C(=O)NCC(=O)N[C@@H](CO)C(=O)N[C@@H](C)C(=O)N[C@@H](CCC(N)=O)C(=O)N[C@@H](CC(C)C)C(=O)N[C@@H](CC(C)C)C(=O)N[C@@H](CCCN=C(N)N)C(=O)N[C@@H](CCC(N)=O)C(=O)N[C@@H](CC(C)C)C(=O)N[C@@H](CCCN=C(N)N)C(=O)NCC(=O)N[C@@H](CCC(N)=O)C(=O)N[C@@H](CC(C)C)C(=O)NCC(=O)N1CCC[C@H]1C(=O)N1CCC[C@H]1C(=O)NCC(=O)N[C@@H](CO)C(=O)N[C@@H](CCCN=C(N)N)C(N)=O` was 0.26 nM. The value for H-MTLIGAAHNGSAQLARQLRGQLGPPGSR-NH2 was 0.065 nM. On to H-MTLIGAAHAGSAQLLRQLRGQLGPPGSR-NH2, for which the EC50 is 2.3 nM.

In turn, `CC[C@H](C)[C@H](NC(=O)[C@H](CC(C)C)NC(=O)[C@@H](NC(=O)[C@@H](N)CCSC)[C@@H](C)O)C(=O)NCC(=O)N[C@@H](C)C(=O)N[C@@H](C)C(=O)N[C@@H](Cc1cnc[nH]1)C(=O)N[C@@H](CC(N)=O)C(=O)NCC(=O)N[C@@H](CO)C(=O)N[C@@H](C)C(=O)N[C@@H](CCC(N)=O)C(=O)N[C@@H](CC(C)C)C(=O)N[C@@H](CC(C)C)C(=O)N[C@@H](CCCN=C(N)N)C(=O)N[C@@H](CCC(N)=O)C(=O)N[C@@H](CC(C)C)C(=O)N[C@@H](CCCN=C(N)N)C(=O)NCC(=O)N[C@@H](CCC(N)=O)C(=O)N[C@@H](CC(C)C)C(=O)NCC(=O)N1CCC[C@H]1C(=O)N1CCC[C@H]1C(=O)N[C@H](C)C(=O)N[C@@H](CO)C(=O)N[C@@H](CCCN=C(N)N)C(N)=O` showed an EC50 of 0.16 nM.

For the compound `CC[C@H](C)[C@H](NC(=O)[C@H](CC(C)C)NC(=O)[C@@H](NC(=O)[C@@H](N)CCSC)[C@@H](C)O)C(=O)NCC(=O)N[C@@H](C)C(=O)N[C@@H](C)C(=O)N[C@@H](Cc1cnc[nH]1)C(=O)N[C@@H](CC(N)=O)C(=O)NCC(=O)N[C@@H](CO)C(=O)N[C@@H](C)C(=O)N[C@@H](CCC(N)=O)C(=O)N[C@@H](CC(C)C)C(=O)N[C@H](CC(C)C)C(=O)N[C@@H](CCCN=C(N)N)C(=O)N[C@@H](CCC(N)=O)C(=O)N[C@@H](CC(C)C)C(=O)N[C@@H](CCCN=C(N)N)C(=O)NCC(=O)N[C@@H](CCC(N)=O)C(=O)N[C@@H](CC(C)C)C(=O)NCC(=O)N1CCC[C@H]1C(=O)N1CCC[C@H]1C(=O)NCC(=O)N[C@@H](CO)C(=O)N[C@@H](CCCN=C(N)N)C(N)=O`, the EC50 came to 0.44 nM. The value for H-MTLIGAAHNGSAQLLRQLRGQLGPAGSR-NH2 was 0.23 nM; that for `CC[C@H](C)[C@H](NC(=O)[C@H](CC(C)C)NC(=O)[C@@H](NC(=O)[C@@H](N)CCSC)[C@@H](C)O)C(=O)NCC(=O)N[C@@H](C)C(=O)N[C@@H](C)C(=O)N[C@@H](Cc1cnc[nH]1)C(=O)N[C@@H](CC(N)=O)C(=O)NCC(=O)N[C@@H](CO)C(=O)N[C@H](C)C(=O)N[C@@H](CCC(N)=O)C(=O)N[C@@H](CC(C)C)C(=O)N[C@@H](CC(C)C)C(=O)N[C@@H](CCCN=C(N)N)C(=O)N[C@@H](CCC(N)=O)C(=O)N[C@@H](CC(C)C)C(=O)N[C@@H](CCCN=C(N)N)C(=O)NCC(=O)N[C@@H](CCC(N)=O)C(=O)N[C@@H](CC(C)C)C(=O)NCC(=O)N1CCC[C@H]1C(=O)N1CCC[C@H]1C(=O)NCC(=O)N[C@@H](CO)C(=O)N[C@@H](CCCN=C(N)N)C(N)=O` was 0.26 nM; that for H-MTLIGAAHNGSAQLLRQLRGQAGPPGSR-NH2 was 0.12 nM. Turning to `CC[C@H](C)[C@H](NC(=O)[C@H](CC(C)C)NC(=O)[C@@H](NC(=O)[C@@H](N)CCSC)[C@@H](C)O)C(=O)NCC(=O)N[C@@H](C)C(=O)N[C@@H](C)C(=O)N[C@@H](Cc1c[nH]cn1)C(=O)N[C@@H](CC(N)=O)C(=O)NCC(=O)N[C@H](CO)C(=O)N[C@@H](C)C(=O)N[C@@H](CCC(N)=O)C(=O)N[C@@H](CC(C)C)C(=O)N[C@@H](CC(C)C)C(=O)N[C@@H](CCCN=C(N)N)C(=O)N[C@@H](CCC(N)=O)C(=O)N[C@@H](CC(C)C)C(=O)N[C@@H](CCCN=C(N)N)C(=O)NCC(=O)N[C@@H](CCC(N)=O)C(=O)N[C@@H](CC(C)C)C(=O)NCC(=O)N1CCC[C@H]1C(=O)N1CCC[C@H]1C(=O)NCC(=O)N[C@@H](CO)C(=O)N[C@@H](CCCN=C(N)N)C(N)=O`, the concentration for a half-maximal effect (EC50) is 0.46 nM. Against the preceding compound, the EC50 is about 3.8-fold higher. On to `CC[C@H](C)[C@H](NC(=O)[C@H](CC(C)C)NC(=O)[C@@H](NC(=O)[C@@H](N)CCSC)[C@@H](C)O)C(=O)NCC(=O)N[C@@H](C)C(=O)N[C@@H](C)C(=O)N[C@@H](Cc1cnc[nH]1)C(=O)N[C@@H](CC(N)=O)C(=O)NCC(=O)N[C@@H](CO)C(=O)N[C@@H](C)C(=O)N[C@@H](CCC(N)=O)C(=O)N[C@@H](CC(C)C)C(=O)N[C@@H](CC(C)C)C(=O)N[C@H](CCCN=C(N)N)C(=O)N[C@@H](CCC(N)=O)C(=O)N[C@@H](CC(C)C)C(=O)N[C@@H](CCCN=C(N)N)C(=O)NCC(=O)N[C@@H](CCC(N)=O)C(=O)N[C@@H](CC(C)C)C(=O)NCC(=O)N1CCC[C@H]1C(=O)N1CCC[C@H]1C(=O)NCC(=O)N[C@@H](CO)C(=O)N[C@@H](CCCN=C(N)N)C(N)=O`, for which a half-maximal effect (EC50) was put at 0.41 nM.
